Experiments:
Assay in all cases: Antimalarial Testing In Vitro (IC50) and Measurement of Inhibition Constant (Ki)
Details in all cases: pH 7; 25 °C
[1] = biological target: Bifunctional dihydrofolate reductase-thymidylate synthase [N51I,C59R,S108N,I164L] (Plasmodium falciparum (isolate K1 / Thailand), UniProt Q8I1R6, C59R/I164L/N51I/S108N)
Experimental: (§1) The activity of pfDHFR-TS was determined spectrophotometrically using a UV-Vis spectrophotometer.

[2] = biological target: Bifunctional dihydrofolate reductase-thymidylate synthase (Plasmodium falciparum (isolate K1 / Thailand), UniProt P13922)
Experimental: as §1

[3] = biological target: Bifunctional dihydrofolate reductase-thymidylate synthase (Plasmodium falciparum (isolate K1 / Thailand), UniProt Q8I1R6)
Experimental: as §1

Bifunctional dihydrofolate reductase-thymidylate synthase (Plasmodium falciparum (isolate K1 / Thailand), UniProt Q8I1R6), sequence (Q8I1R6 whole entry): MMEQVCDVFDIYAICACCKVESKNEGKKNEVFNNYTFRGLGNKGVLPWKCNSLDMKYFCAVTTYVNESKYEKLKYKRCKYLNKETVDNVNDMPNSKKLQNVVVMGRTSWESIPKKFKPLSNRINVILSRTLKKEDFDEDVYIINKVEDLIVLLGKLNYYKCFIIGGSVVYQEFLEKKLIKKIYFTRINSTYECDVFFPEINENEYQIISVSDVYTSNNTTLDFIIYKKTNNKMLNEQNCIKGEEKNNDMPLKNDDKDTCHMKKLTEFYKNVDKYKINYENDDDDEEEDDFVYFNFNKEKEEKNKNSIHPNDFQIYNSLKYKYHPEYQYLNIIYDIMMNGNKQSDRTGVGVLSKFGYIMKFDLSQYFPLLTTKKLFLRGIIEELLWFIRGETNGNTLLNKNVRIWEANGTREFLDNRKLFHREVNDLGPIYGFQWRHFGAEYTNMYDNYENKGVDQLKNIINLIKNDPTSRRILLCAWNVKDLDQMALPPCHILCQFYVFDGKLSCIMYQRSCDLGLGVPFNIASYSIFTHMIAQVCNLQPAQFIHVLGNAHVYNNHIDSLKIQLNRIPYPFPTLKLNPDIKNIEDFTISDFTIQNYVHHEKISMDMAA
Bifunctional dihydrofolate reductase-thymidylate synthase (Plasmodium falciparum (isolate K1 / Thailand), UniProt P13922), sequence (P13922 whole entry): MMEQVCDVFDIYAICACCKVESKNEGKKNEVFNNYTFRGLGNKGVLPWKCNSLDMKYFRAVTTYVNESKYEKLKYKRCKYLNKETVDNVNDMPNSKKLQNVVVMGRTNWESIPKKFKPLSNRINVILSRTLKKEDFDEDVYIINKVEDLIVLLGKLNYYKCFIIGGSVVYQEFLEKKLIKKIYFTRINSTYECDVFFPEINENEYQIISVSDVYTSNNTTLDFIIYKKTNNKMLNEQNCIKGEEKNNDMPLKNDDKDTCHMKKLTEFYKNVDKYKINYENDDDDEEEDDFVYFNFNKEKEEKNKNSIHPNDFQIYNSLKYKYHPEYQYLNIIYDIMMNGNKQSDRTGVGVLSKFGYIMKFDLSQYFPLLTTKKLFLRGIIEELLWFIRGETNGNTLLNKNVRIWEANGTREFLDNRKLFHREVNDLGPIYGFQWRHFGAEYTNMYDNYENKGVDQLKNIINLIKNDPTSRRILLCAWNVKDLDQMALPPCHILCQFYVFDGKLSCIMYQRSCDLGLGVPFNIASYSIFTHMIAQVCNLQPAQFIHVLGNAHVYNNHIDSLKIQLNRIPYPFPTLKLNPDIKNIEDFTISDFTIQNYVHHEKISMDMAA
Bifunctional dihydrofolate reductase-thymidylate synthase [N51I,C59R,S108N,I164L], sequence (Q8I1R6 whole entry N51I/C59R/S108N/I164L): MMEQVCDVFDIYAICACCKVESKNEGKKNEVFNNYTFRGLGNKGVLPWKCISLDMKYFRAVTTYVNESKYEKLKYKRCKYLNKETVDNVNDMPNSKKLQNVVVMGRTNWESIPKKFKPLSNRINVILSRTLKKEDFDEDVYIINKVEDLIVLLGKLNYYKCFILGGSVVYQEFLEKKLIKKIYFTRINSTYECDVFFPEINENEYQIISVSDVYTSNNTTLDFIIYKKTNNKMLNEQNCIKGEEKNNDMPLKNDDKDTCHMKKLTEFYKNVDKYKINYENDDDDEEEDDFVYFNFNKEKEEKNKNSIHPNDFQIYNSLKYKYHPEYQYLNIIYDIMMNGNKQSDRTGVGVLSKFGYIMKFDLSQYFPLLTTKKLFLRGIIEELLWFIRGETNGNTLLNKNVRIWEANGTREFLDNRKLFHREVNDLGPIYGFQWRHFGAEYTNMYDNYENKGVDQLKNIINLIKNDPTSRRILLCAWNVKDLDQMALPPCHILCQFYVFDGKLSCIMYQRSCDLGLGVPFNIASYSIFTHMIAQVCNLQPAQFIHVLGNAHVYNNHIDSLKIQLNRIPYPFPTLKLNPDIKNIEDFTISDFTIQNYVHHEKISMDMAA

Row | SMILES | IC50 [1] [nM] | Ki [1] [nM] | IC50 [2] [nM] | Ki [2] [nM] | IC50 [3] [nM] | Ki [3] [nM]
1 | CC1(C)N=C(N)N=C(N)N1c1ccc(Cl)cc1 | > 100000 | 254 | 2400 | 6.2 | 37 | 0.3
2 | CC1(C)N=C(N)N=C(N)N1OCCCOc1cc(Cl)c(Cl)cc1Cl [6,6-dimethyl-1-[3-(2,4,5-trichlorophenoxy)propoxy]-1,6-dihydro-1,3,5-triazine-2,4-diamine] | 18 | 0.037 | 2.3 | 0.02 | 0.57 | 0.011
